Measured values as given in ChEMBL document CHEMBL4340550, “Structure based designing of triazolopyrimidone-based reversible inhibitors for kinases involved in NSCLC” (Bioorg Med Chem Lett, 2019).

Key:
NCI-H460 [1] = experiment: Antiproliferative activity against human H460 cells assessed as reduction in cell viability after 24 hrs by MTT assay; type: functional, cell-based; conditions: NCI-H460, 24 h
A-431 [2] = experiment: Antiproliferative activity against human A431 cells assessed as reduction in cell viability after 24 hrs by MTT assay; type: functional, cell-based; conditions: A-431, 24 h
[3] = biological target: Hepatocyte growth factor receptor (Homo sapiens, UniProt P08581); experiment: Inhibition of human recombinant His-tagged cMET expressed in baculovirus expression system reduction in phosphorylation using tyrosine 6 peptide as substrate after 60 mins FRET based Z'-LYTE assay
[4] = biological target: Epidermal growth factor receptor (Homo sapiens, UniProt P00533, L858R); experiment: Inhibition of human recombinant GST-tagged EGFR L858R mutant expressed in baculovirus expression system reduction in phosphorylation using tyrosine 4 peptide as substrate after 60 mins FRET based Z'-LYTE assay
[5] = biological target: Epidermal growth factor receptor (Homo sapiens, UniProt P00533, L858R/T790M); experiment: Inhibition of human recombinant GST-tagged EGFR L858R/T790M mutant expressed in baculovirus expression system reduction in phosphorylation using tyrosine 4 peptide as substrate after 60 mins FRET based Z'-LYTE assay
A549 [6] = experiment: cells; conditions: Homo sapiens, A549, 24 h
Description: Antiproliferative activity against human A549 cells assessed as reduction in cell viability after 24 hrs by MTT assay

NCI-H460 [7] = experiment: Antiproliferative activity against human H460 cells assessed as cell viability at 40 uM after 48 hrs by MTT assay relative to control; type: functional; conditions: NCI-H460, 48 h, read-out: Activity
NCI-H460 [8] = experiment: Antiproliferative activity against human H460 cells assessed as cell viability at 30 uM after 48 hrs by MTT assay relative to control; type: functional; conditions: NCI-H460, 48 h, read-out: Activity
NCI-H460 [9] = experiment: Antiproliferative activity against human H460 cells assessed as cell viability at 20 uM after 48 hrs by MTT assay relative to control; type: functional; conditions: NCI-H460, 48 h, read-out: Activity
NCI-H460 [10] = experiment: Antiproliferative activity against human H460 cells assessed as cell viability at 10 uM after 48 hrs by MTT assay relative to control; type: functional; conditions: NCI-H460, 48 h, read-out: Activity
A549 [11] = experiment: Antiproliferative activity against human A549 cells assessed as cell viability at 40 uM after 48 hrs by MTT assay relative to control; type: functional; conditions: A549, 48 h, read-out: Activity
A549 [12] = experiment: Antiproliferative activity against human A549 cells assessed as cell viability at 30 uM after 48 hrs by MTT assay relative to control; type: functional; conditions: A549, 48 h, read-out: Activity
A549 [13] = experiment: Antiproliferative activity against human A549 cells assessed as cell viability at 20 uM after 48 hrs by MTT assay relative to control; type: functional; conditions: A549, 48 h, read-out: Activity
A549 [14] = experiment: Antiproliferative activity against human A549 cells assessed as cell viability at 10 uM after 48 hrs by MTT assay relative to control; type: functional; conditions: A549, 48 h, read-out: Activity
A-431 [15] = experiment: Antiproliferative activity against human A431 cells assessed as cell viability at 40 uM after 48 hrs by MTT assay relative to control; type: functional; conditions: A-431, 48 h, read-out: Activity
A-431 [16] = experiment: Antiproliferative activity against human A431 cells assessed as cell viability at 30 uM after 48 hrs by MTT assay relative to control; type: functional; conditions: A-431, 48 h, read-out: Activity
A-431 [17] = experiment: Antiproliferative activity against human A431 cells assessed as cell viability at 20 uM after 48 hrs by MTT assay relative to control; type: functional; conditions: A-431, 48 h, read-out: Activity
A-431 [18] = experiment: Antiproliferative activity against human A431 cells assessed as cell viability at 10 uM after 48 hrs by MTT assay relative to control; type: functional; conditions: A-431, 48 h, read-out: Activity

Hepatocyte growth factor receptor, sequence (P08581 whole entry): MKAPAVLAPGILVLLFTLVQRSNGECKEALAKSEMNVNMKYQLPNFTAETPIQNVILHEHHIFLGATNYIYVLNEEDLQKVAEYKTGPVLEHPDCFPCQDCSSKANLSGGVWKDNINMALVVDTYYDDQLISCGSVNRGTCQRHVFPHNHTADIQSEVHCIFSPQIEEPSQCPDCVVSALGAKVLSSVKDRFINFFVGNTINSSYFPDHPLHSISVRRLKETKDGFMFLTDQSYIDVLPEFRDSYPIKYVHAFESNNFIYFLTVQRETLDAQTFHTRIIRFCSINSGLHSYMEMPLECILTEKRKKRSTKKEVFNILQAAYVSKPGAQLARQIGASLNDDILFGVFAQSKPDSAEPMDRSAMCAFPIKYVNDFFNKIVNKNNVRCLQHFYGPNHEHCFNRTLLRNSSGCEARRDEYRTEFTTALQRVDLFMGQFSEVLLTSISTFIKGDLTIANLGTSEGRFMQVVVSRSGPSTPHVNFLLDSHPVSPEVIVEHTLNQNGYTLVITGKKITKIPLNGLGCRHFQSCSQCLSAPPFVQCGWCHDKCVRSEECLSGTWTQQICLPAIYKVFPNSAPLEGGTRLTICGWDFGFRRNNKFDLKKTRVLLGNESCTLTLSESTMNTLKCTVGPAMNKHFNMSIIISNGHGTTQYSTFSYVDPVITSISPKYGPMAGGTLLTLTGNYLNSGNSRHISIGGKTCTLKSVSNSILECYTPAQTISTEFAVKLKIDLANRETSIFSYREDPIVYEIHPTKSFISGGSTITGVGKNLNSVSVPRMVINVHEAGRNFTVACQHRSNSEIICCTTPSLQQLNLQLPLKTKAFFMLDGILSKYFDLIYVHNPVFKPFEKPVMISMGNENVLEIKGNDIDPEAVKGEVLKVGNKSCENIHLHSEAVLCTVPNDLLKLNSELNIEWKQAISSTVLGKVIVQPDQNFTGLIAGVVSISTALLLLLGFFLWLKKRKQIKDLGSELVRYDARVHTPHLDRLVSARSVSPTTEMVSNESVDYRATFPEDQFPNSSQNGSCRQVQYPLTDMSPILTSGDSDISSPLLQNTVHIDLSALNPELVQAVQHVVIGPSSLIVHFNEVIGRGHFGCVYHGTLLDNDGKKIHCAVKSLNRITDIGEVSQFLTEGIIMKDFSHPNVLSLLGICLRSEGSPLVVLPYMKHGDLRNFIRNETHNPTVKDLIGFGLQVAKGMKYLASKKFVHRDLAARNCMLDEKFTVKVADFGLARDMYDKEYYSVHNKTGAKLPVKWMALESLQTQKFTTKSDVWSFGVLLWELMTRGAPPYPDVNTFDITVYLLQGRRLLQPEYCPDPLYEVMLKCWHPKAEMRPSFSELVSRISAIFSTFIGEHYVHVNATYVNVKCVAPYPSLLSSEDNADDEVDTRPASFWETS
Epidermal growth factor receptor (Homo sapiens, UniProt P00533, L858R), sequence (P00533 25-1210 L858R limits assumed): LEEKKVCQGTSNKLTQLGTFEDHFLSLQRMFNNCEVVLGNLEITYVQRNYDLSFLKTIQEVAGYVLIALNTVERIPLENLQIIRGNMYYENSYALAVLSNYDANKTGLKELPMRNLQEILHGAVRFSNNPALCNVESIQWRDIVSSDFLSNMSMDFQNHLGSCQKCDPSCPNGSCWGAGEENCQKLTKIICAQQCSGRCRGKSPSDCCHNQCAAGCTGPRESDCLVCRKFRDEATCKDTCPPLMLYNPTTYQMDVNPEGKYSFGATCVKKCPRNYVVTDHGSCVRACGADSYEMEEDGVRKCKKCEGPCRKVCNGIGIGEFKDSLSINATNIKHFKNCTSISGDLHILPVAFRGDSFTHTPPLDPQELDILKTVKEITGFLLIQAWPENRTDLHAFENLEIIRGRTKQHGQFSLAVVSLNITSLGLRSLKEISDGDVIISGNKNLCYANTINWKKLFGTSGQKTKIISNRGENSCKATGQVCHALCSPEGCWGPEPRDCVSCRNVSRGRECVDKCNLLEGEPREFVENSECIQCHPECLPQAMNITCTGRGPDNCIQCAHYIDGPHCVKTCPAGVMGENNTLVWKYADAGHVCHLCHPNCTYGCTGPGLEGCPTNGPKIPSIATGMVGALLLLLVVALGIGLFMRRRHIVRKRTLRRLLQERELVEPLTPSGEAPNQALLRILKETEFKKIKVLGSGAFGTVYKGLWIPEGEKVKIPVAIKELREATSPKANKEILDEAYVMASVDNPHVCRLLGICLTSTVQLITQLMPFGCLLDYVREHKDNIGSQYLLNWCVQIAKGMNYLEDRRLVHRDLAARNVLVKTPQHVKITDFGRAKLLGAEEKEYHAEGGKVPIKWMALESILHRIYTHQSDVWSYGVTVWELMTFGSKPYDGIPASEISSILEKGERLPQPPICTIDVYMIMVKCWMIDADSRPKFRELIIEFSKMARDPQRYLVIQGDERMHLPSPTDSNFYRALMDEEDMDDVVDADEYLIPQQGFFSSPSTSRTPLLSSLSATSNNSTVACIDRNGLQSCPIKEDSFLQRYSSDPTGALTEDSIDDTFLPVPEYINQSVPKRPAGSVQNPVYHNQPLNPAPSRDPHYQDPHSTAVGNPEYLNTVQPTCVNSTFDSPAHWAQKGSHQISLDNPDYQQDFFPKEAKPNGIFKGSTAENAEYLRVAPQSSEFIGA
Epidermal growth factor receptor (Homo sapiens, UniProt P00533, L858R/T790M), sequence (P00533 25-1210 T790M/L858R limits assumed): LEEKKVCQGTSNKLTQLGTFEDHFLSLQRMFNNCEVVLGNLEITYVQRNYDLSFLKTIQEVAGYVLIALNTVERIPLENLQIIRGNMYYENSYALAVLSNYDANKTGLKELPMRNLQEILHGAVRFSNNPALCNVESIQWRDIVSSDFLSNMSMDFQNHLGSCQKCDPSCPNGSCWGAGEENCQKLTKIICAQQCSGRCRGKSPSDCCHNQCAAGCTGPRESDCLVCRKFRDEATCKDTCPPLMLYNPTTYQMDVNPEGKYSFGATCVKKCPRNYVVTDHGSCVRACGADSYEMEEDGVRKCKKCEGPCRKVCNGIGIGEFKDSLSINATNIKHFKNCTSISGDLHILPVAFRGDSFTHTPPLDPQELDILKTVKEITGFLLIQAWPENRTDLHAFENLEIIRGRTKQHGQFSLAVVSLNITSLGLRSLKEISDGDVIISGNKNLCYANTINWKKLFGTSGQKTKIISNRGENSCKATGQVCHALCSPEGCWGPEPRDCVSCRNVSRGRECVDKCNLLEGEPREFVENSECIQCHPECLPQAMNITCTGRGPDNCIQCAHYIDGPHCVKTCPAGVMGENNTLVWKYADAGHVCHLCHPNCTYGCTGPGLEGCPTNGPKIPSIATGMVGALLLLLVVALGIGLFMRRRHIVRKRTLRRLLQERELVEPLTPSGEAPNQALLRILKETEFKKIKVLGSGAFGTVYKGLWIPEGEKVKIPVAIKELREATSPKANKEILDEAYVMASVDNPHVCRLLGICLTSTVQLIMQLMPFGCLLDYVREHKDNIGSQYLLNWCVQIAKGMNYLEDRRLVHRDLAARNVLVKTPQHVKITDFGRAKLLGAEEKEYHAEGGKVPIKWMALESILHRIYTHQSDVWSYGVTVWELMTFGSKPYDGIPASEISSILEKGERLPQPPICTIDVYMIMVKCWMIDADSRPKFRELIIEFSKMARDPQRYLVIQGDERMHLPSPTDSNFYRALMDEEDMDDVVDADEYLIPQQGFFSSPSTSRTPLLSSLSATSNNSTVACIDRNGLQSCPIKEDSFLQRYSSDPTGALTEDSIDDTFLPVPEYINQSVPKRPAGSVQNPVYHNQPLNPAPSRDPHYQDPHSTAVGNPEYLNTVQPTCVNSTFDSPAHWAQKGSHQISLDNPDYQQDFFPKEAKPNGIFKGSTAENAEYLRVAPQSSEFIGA

Structure (SMILES) | IC50 (NCI-H460 [1]) [nM] | IC50 (A-431 [2]) [nM] | IC50 [3] [nM] | IC50 [4] [nM] | IC50 [5] [nM] | IC50 (A549 [6]) [nM] | viability at 40 µM (NCI-H460 [7]) [%] | viability at 30 µM (NCI-H460 [8]) [%] | viability at 20 µM (NCI-H460 [9]) [%] | viability at 10 µM (NCI-H460 [10]) [%] | viability at 40 µM (A549 [11]) [%] | viability at 30 µM (A549 [12]) [%] | viability at 20 µM (A549 [13]) [%] | viability at 10 µM (A549 [14]) [%] | viability at 40 µM (A-431 [15]) [%] | viability at 30 µM (A-431 [16]) [%] | viability at 20 µM (A-431 [17]) [%] | viability at 10 µM (A-431 [18]) [%]
Cc1cc(=O)n2nc(SCc3ccc(F)cc3)nc2[nH]1 | > 80000 | > 40000 | 203 | 52 | 56 | > 80000 |  |  |  |  |  |  |  |  |  |  |  | 
Cc1cc(=O)n2nc(SCc3ccc(Cl)cc3)nc2[nH]1 | 56500 | 32500 | 113 | 54 | 182 | 61400 |  |  |  |  |  |  |  |  |  |  |  | 
Cc1cc(O)n2nc(SCc3cccc(Cl)c3)nc2n1 | > 80000 | > 40000 | 92 | 131 | 59 | > 80000 |  |  |  |  |  |  |  |  |  |  |  | 
Cc1cc(=O)n2nc(SCc3cccc([N+](=O)[O-])c3)nc2[nH]1 | > 80000 | > 40000 | 89 | 157 | 77 | > 80000 |  |  |  |  |  |  |  |  |  |  |  | 
Cc1cc(=O)n2nc(SCc3ccc(C(C)C)cc3)nc2[nH]1 | 31800 | 17300 | 50 | 80 | 62 | 35200 | 41.8 | 56 | 71.6 | 86.7 | 43.4 | 65.3 | 79.6 | 89.7 | 17.7 | 38.8 | 50.7 | 71.7
Cc1cc(=O)n2nc(SCc3cccc(C(F)(F)F)c3)nc2[nH]1 | 65800 | 21800 | 94 | 81 | 84 | 72000 |  |  |  |  |  |  |  |  |  |  |  | 
Cc1cc(=O)n2nc(SCc3ccc(C(C)(C)C)cc3)nc2[nH]1 | 59000 | 24400 | 65 |  |  | 60500 |  |  |  |  |  |  |  |  |  |  |  | 
Cc1ccc(CSc2nc3[nH]c(C)cc(=O)n3n2)cc1 | 49900 | 15800 | 79 | 311 | 168 | 50100 |  |  |  |  |  |  |  |  | 32.5 | 41.7 | 62.5 | 75.8
Cc1cc(=O)n2nc(SCc3ccc(Cl)cc3Cl)nc2[nH]1 | 27200 | 18200 | 42 | 141 | 141 | 34900 | 34.9 | 51 | 65.7 | 83.5 | 46.8 | 61.2 | 77 | 88.3 |  |  |  | 
Cc1cc(=O)n2nc(SCc3ccc([N+](=O)[O-])cc3)nc2[nH]1 | > 80000 | > 40000 | 104 | 107 | 76 | > 80000 |  |  |  |  |  |  |  |  |  |  |  | 
